In ChEMBL document CHEMBL1201862, “PubChem BioAssay data set” (2004):
Activity calls are given as the source filed them.

Assays:
[1] = target: T1, Leucine aminopeptidase (Plasmodium falciparum 3D7, UniProt Q8IL11); test: P. falciparum M17LAP inhibitors, primary screen, biochemical, fluorogenic H-Leu-NHMec substrate, 1536-well (AID 1619); assay type: functional
T1 sequence (Q8IL11 whole entry): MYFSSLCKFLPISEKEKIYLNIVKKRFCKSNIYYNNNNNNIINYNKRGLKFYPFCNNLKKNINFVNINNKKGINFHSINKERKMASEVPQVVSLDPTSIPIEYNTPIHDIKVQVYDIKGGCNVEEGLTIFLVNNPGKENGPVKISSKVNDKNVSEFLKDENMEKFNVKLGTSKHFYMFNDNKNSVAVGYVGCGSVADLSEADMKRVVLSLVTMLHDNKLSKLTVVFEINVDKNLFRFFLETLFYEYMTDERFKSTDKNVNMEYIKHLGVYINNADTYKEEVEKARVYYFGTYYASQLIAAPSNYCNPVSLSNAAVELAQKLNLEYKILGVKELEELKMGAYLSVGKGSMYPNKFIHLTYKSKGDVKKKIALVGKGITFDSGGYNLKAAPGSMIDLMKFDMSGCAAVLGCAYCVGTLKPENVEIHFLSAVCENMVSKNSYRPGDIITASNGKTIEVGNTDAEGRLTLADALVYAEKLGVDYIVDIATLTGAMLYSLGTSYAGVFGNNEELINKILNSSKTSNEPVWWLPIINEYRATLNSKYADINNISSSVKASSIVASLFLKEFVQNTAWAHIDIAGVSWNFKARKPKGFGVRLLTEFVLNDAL

[2] = target: T2, Replicative DNA helicase DnaB (Mycobacterium tuberculosis, UniProt P9WMR3); test: DnaB intein splicing inhibitors, dose response, biochemical, cell-free fluorescence (AID 449749); assay type: functional
T2 sequence (P9WMR3 whole entry): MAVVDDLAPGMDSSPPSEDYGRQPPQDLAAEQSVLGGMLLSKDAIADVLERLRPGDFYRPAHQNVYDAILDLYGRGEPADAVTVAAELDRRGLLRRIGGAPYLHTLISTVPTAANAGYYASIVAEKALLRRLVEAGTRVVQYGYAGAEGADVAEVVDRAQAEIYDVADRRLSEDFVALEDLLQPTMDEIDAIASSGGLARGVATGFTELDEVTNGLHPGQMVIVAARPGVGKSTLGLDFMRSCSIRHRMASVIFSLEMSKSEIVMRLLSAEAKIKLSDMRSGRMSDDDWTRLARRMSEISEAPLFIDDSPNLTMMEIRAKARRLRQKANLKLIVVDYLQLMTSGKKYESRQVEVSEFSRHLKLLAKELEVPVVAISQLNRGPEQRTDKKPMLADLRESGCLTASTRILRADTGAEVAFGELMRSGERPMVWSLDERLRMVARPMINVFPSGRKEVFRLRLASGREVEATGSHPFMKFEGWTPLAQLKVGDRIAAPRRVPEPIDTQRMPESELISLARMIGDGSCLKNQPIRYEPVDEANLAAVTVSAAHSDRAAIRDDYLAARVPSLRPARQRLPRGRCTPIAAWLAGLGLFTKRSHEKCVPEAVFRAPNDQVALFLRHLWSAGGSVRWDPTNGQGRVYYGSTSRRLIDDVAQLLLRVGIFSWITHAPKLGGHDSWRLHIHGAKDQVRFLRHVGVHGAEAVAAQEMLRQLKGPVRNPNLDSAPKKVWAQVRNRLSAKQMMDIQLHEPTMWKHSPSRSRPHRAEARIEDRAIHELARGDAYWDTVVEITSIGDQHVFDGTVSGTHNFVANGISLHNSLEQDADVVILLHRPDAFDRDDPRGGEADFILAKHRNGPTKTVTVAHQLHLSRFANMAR

[3] = target: T3, Protein RecA (Mycobacterium tuberculosis, UniProt P9WHJ3); test: Fluorescence Cell-Free Homogeneous Dose Retest to Identify Inhibitors of RecA-Intein Splicing Activity. [Related pubchem assays (depositor defined):AID2097, AID2223, AID489010, AID492950]; assay type: functional
T3 sequence (P9WHJ3 whole entry): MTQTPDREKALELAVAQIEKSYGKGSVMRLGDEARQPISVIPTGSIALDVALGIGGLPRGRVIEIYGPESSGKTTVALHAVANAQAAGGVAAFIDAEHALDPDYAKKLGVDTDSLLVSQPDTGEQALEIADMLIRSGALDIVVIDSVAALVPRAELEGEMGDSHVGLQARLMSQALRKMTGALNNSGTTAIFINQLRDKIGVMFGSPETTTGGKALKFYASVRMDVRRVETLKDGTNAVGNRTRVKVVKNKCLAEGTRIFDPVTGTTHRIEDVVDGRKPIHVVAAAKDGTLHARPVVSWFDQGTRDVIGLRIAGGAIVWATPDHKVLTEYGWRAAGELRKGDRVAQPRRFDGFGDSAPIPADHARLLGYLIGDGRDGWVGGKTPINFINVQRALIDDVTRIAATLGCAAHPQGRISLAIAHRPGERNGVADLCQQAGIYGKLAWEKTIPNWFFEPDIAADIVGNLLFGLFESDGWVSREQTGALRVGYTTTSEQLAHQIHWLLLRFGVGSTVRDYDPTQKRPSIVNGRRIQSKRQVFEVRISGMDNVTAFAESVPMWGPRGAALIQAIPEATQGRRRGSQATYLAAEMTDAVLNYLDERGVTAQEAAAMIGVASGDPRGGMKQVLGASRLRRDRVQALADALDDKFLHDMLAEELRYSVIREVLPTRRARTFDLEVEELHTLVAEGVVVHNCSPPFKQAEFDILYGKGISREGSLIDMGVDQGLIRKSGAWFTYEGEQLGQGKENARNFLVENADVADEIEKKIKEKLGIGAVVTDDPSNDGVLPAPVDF

[4] = target: Glyceraldehyde-3-phosphate dehydrogenase (Homo sapiens, UniProt P04406)
Chain of Glyceraldehyde-3-phosphate dehydrogenase (P04406 whole entry): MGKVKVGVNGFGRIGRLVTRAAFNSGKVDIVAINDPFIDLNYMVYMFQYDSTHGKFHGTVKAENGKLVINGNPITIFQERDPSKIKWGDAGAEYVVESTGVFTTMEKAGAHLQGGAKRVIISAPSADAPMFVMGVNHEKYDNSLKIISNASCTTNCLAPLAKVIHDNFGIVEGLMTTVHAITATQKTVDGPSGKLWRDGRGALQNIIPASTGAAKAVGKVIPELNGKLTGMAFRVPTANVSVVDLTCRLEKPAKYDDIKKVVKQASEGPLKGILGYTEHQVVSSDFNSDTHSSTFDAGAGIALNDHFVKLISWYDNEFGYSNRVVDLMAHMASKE

[5] = viability loss in THP-1 monocytes – THP-1 cells, cytotoxicity control for Vif-APOBEC3G degradation inhibitor project, dose response (AID 1117359); assay type: functional; settings: THP-1
[6] = luciferase reporter signal suppression in cells – H4 neuroglioma cells, luminescence, dose response (AID 1990); assay type: functional, cell-based
[7] = target: T4, RNA-binding protein pos-1 (Caenorhabditis elegans, UniProt G5EF15); test: disruptors of C. elegans POS-1 RNA interaction – biochemical, fluorescence polarization, dose response (AID 1964);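 further: purified POS-1 fused to maltose binding protein made in E. coli; potency of compounds blocking POS-1 binding to fluorescent RNA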
T4 sequence (G5EF15 whole entry): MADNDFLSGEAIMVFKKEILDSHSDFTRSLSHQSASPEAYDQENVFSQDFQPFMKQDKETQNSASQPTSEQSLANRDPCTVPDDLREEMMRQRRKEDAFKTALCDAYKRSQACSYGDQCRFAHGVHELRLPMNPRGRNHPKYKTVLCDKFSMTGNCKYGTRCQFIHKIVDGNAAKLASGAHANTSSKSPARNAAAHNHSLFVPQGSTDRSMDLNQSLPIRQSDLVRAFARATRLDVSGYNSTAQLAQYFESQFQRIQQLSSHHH

[8] = Luminescence Cell-Based Dose Response HTS to Identify Inhibitors of 5'UTR Stem-Loop Driven Prion Protein mRNA Translation in H4 Neuroglioblastoma Cells. [Related pubchem assays: 1827 (Project Summary), 1813 (Primary HTS)]; assay type: functional
[9] = target: T5, Zinc finger protein mex-5 (Caenorhabditis elegans, UniProt Q9XUB2); test: potency of MEX-5 RNA-binding blockers – biochemical, C. elegans, fluorescence polarization, dose response (AID 1960)
T5 sequence (Q9XUB2 whole entry): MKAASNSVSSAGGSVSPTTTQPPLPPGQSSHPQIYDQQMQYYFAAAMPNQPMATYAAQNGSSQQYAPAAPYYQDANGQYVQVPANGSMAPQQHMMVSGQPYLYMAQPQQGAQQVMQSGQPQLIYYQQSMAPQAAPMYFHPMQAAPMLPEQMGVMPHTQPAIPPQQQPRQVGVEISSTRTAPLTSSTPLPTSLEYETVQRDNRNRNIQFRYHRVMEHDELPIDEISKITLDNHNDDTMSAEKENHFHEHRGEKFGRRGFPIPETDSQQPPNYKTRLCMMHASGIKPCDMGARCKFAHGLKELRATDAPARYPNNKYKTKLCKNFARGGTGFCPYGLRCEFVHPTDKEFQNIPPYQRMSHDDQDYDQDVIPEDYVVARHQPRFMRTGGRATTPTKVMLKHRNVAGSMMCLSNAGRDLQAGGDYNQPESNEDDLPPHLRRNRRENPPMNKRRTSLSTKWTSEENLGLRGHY

[10] = alpha-synuclein stem-loop luciferase translation blockers – H4 neuroglioma cells, luminescence, confirmation (AID 1988); assay type: functional, cell-based
[11] = target: Luciferin 4-monooxygenase (Photinus pyralis, UniProt P08659); test: inhibition of purified Photinus pyralis luciferase – biochemical, luminescence, dose response (AID 1891)
Chain of Luciferin 4-monooxygenase (P08659 whole entry): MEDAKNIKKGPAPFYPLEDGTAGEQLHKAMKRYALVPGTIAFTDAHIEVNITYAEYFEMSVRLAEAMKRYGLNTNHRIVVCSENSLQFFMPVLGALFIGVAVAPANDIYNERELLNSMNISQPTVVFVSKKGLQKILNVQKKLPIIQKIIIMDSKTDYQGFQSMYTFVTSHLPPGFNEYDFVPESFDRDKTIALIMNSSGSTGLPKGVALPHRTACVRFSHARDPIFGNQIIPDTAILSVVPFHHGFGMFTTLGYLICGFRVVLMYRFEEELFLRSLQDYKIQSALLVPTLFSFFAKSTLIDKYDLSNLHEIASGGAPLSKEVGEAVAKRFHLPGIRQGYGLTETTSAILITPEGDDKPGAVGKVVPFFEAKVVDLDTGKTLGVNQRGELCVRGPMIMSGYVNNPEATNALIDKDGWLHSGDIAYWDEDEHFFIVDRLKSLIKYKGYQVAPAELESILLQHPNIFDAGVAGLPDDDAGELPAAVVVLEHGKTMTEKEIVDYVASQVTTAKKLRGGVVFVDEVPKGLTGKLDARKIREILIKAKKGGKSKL

[12] = Luminescence Cell-Based Dose Confirmation HTS to Identify Inhibitors of Platelet Dense Granule Release. [Related pubchem assays: 1663 (Primary HTS), 1678 (Summary of Project)]; assay type: functional
[13] = test system: HEK293; test: EBV LMP1 TES2 canonical NF-kB signalling blockers – cell-based, HEK293, luciferase, cherry-pick, dose response (AID 588343); assay type: functional; settings: Homo sapiens
[14] = cells; assay type: functional, cell-based
[15] = target: T6, Nuclear receptor subfamily 0 group B member 1 (Homo sapiens, UniProt P51843); assay type: functional, cell-based;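 further: HEK293T cells transfected with SF-1 and DAX-1 plus StAR promoter luciferase reporter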
T6 sequence (P51843 whole entry): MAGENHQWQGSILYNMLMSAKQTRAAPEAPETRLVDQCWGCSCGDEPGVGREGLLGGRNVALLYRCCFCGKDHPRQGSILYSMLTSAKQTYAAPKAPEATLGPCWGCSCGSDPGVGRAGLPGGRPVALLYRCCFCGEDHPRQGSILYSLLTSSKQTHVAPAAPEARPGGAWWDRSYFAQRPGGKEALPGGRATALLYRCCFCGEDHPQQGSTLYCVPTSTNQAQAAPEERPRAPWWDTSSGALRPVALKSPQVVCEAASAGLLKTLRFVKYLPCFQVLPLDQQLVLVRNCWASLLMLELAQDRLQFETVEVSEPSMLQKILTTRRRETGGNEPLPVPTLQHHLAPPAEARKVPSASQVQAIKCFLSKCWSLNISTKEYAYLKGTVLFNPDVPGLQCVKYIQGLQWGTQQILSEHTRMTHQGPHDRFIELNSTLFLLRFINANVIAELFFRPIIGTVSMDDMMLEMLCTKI

[16] = A549 cell cytotoxicity, dose response, cytotoxicity control, plate reader, cherry-pick, antagonist series (AID 743412); assay type: functional, cell-based
[17] = toxicity toward HepG2 liver cells – cell-based, plate reader, cherry-pick, antagonist series, cytotoxicity control, dose response (AID 743416); assay type: functional
[18] = blockers of bursicon-stimulated LGR2 cAMP reporter – cell-based, HEK293, CRE-luciferase reporter, cherry pick, set 2, dose response (AID 743343); assay type: functional;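 further: transfected cells were stimulated with diluted bursicon conditioned medium after compound addition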
[19] = blockade of melanocortin 4 receptor signaling – cell-based, plate reader, cherry pick, counter-screen for LGR2 antagonist project, dose response (AID 743444); assay type: functional;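 further: transfected HEK 293 cells stimulated with alpha-MSH peptide; potency of inhibitors of the alpha-MSH evoked signal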
[20] = viability loss in HEK293 cells – cell-based, plate reader, cherry-picked samples, cytotoxicity control, dose response (AID 743446); assay type: functional
[21] = target: T7, Heat shock factor protein 1 (Mus musculus, UniProt P38532); test: enhancement of HSF1-driven luciferase signal – cell-based, NIH3T3, luminescence, dose retest, confirmation (AID 435004); assay type: functional;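 further: stress induced by proteasome inhibitor MG132 added 30 min after compound; luciferase reporter driven by HSF1 response element in NIH3T3 cells; actives raise luminescence as potentiators of the MG132 stress response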
T7 sequence (P38532 whole entry): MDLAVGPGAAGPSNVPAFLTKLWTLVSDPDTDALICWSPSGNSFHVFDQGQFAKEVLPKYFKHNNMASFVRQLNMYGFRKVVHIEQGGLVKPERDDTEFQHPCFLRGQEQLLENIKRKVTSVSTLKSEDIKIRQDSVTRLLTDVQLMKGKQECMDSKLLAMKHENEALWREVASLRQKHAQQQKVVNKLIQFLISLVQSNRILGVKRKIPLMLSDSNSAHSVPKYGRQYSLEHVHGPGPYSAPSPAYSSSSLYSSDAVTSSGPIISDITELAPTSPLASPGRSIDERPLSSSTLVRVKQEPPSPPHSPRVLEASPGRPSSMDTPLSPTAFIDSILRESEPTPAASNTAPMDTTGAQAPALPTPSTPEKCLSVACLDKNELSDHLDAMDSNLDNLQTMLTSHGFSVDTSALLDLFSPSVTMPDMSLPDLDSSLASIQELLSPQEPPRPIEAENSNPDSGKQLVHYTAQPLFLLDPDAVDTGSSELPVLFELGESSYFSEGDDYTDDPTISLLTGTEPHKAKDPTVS

For `CC(=O)N1CCC2(CC1)C(C#N)=C(N)Oc1[nH]nc(CSc3ccc(C)cc3)c12`, the IC50 [1] was 21.1 µM (active), the AC50 [2] was 4.72 µM (active) and the EC50 [3] was 2.9 µM (active).
In the case of `Cc1oc(-c2cc(Cl)cc(Cl)c2)cc1C(=O)Nc1ccc(S(N)(=O)=O)cc1`, the IC50 [4] is reported as > 100 µM (not active).
With `CC1CCc2[nH]c3ccc(C(=O)N(C)CC(=O)Nc4ccc(F)cc4)cc3c2C1` (configuration not stated) the CC50 [5] was > 40 µM (active).
For `Cc1nc2sc(-c3ccccc3)cc2c(=O)n1N`, the EC50 [6] was 2.82 µM (active), the EC50 [7] was > 300 µM (not active) and the EC50 [8] was 6.26 µM (active). The EC50 [9] was > 300 µM (not active), the EC50 [10] was 3.44 µM (active) and the EC50 [11] was 1.01 µM (active). For the same compound, the EC50 [12] was 1.73 µM (active), the AC50 [13] was 1.04 µM (active) and the IC50 [14] was > 67.6 µM (inactive). For the same compound, the IC50 [15] was > 67.6 µM (inactive), the AC50 [16] was 24.2 µM (active) and the AC50 [17] was 50 µM (active). For the same compound, the AC50 [18] was 2.31 µM (active), the AC50 [19] was 2.66 µM (active) and the AC50 [20] was 24.9 µM (active).
In the case of `O=C(O)C1CCCCC1C(=O)Nc1ccc2c(c1)CCC2` (configuration not stated), the IC50 [1] is reported as 9.16 µM (active) and the EC50 [21] is reported as > 260 µM (inactive).
